Tested on: inflammatory responses elicited by topically applied phorbol myristate acetate (PMA) or arachidonic acid (AA) in mouse ears
Experiment: Topical mouse ear assay (TME): edema measured by wet weight after topical PMA or AA
Format: in vivo
Conditions: mean, N=5 mice/group
Method: The topical mouse ear assay (TME) was used to evaluate the novel compounds of the present invention for its effect on inflammatory responses elicited by topically applied phorbol myristate acetate (PMA) or topically applied archidonic acid (AA).
Method: The right ears of mice (5 mice per group) were treated topically with either […] or 1000 μg AA alone or with the test compound in 25 μl of vehicle. The vehicle was water/pyridine/acetone (1:2:97). A control group of mice received the vehicle only. The mice were allowed food and water ad libitum during the treatment period; 2 hours for AA and 4 hours for PMA. The mice were sacrificed by cervical dislocation and a 6 mm diameter disc of tissue punched from both the treated and untreated ears. The tissue biopsies were immediately weighed and the weight increase of the treated ear relative to the weight of the untreated ear determined.
All of the data are expressed as the mean ±SEM, N=5 mice/group.

## C[C@@H]1C[C@H]2[C@@H]3CCC4=CC(=O)C=C[C@]4(C)[C@@]3(F)[C@@H](O)C[C@]2(C)[C@@]1(O)C(=O)CO [Dexamethasone, reference compound]
Dosage 5 μg
  Edema (% inhibition): 60%

## COc1ccc2c(c1)c(CC(=O)O)c(C)n2C(=O)c1ccc(Cl)cc1 [Indomethacin, reference compound]
Dosage 150 μg
  Edema (% inhibition): 51%

## COc1ccc(O)c(CSc2ccccc2CO)c1 [Compound A, 2-[2-(Hydroxymethyl)phenylthiomethyl]-4-methoxyphenol]
Dosage 30 μg
  Edema (% inhibition): 12%
Dosage 50 μg
  Edema (% inhibition): 16%
Dosage 200 μg
  Edema (% inhibition): 55%
Dosage 300 μg
  Edema (% inhibition): 63%
